Here are results for eight compounds from patent US20250188088A1, “COMPOUND AND USE THEREOF” (ONQUALITY PHARMACEUTICALS CHINA LTD., priority 2022, published 2025).

The structures appear in SMILES notation. In brackets after ≈: the same amount, converted by molar mass. Read-outs that look alike come from different tables or passages of the source.

Data set [1] can be described thus: Log D measurement (n-octanol/PBS shake, LC-MS/MS). The data set is classed as physicochemical. The following applies: pH 7.4, read-out: LogD7.4 (Oct/buff). The protocol:
Two replicates of test compounds (DMSO stock solution 10 mM, 2 μL/well) and QCs (DMSO 10 mM, 2 μL/well) were transferred from the storage tube to a 96-well cluster tube. Add buffer-saturated n-octanol ([…]) and n-octanol-saturated PBS (149 μL/well) to each well; vortex mix the cluster tube for 1 minute, mix by shaking on a plate shaker at 880 rpm for one hour, and then centrifuge at 4000 rpm for 10 minutes. Remove the cover pad, accurately measure a certain amount of n-octanol layer samples (4 μL/well) into a 96-well plate containing n-octanol internal standard diluent (796 μL/well); accurately measure a certain amount of buffer salt layer samples (30 μL/well) into a 96-well plate containing buffer internal standard diluent (570 μL/well); the dilution factor of the sample can be adjusted according to different properties of the sample. Samples were analyzed using a triple quadrupole mass spectrometer. The processed sample solution was analyzed by the fast isocratic elution and small column retention method, the concentration correction was carried out by dilution factor and internal standard, and the ratio of the corrected peak area was used to calculate the final result (Log D/Log P value).

The nature of data set [2]: Thermodynamic solubility assay (PBS pH 6.5; isopropyl myristate). The data set is classed as physicochemical. The following applies: thermodynamic from solid. The procedure:
Thermodynamic Solubility Assay
Weigh not less than 2 mg of the sample powder into a Whatman Mini-UniPrep vial. If it is required to test the thermodynamic solubility of samples in multiple buffers, a separate vial is needed for each test; add 450 μL of buffer to each Whatman Mini-UniPrep vial, respectively; after that, install the piston cap of Whatman Mini-UniPrep and press it above the liquid level, so that the filter is in contact with the buffer during shaking; shake the solubility sample by vortexing for 1 minute.
Inject 3 UV standard solutions from low to high concentrations into the HPLC, then inject the diluent and supernatant of the test compound, with two replicates of test sample; and integrate the UV peaks. Simulate a standard curve and calculate the thermodynamic solubility of the sample.

Data set [3] concerns rash caused by monoclonal EGFR inhibitors. Briefly: Prevention of rash caused by monoclonal EGFR inhibitors, topical ointment, rat model. The data set is classed as in vivo, SD rats. The protocol:
An Experiment to Verify the Prevention of Rash Caused by Monoclonal EGFR Inhibitors with Topical Administration of Compounds of the Present Application on a Rat Animal Model After the SD rats were fed and adapted for one week (about 200 g), the rats were divided into 10 rats per group. The hair on the back of rats was gently removed with an electric razor one day before the experiment, and then an administration test was carried out. The experiments were divided into the administration group with the compound of the present application and the control group. The EGFR monoclonal antibody solution diluted with normal saline was injected via the tail vein twice a week, and the injection rate and time are shown in Table 2. After injection, the administration group applied the compound ointment of the present application on the backs (about 3 cm*3 cm) of rats every day, and the control group applied blank matrix ointment (about 0.5 g) to the backs (about 3 cm*3 cm) of rats every day. After drug application, the rats were fixed with a fixed cyclinder for 4 h; after that, the rats were released and the residual drug at the application site was wiped off with clear water. Monoclonal antibody EGFR inhibitors were injected via the tail vein twice a week, and the compound of the present application and blank ointment were applied once a day until obvious rashes appeared in the control group. […] Table 2 lists the animal experiment combinations of various monoclonal antibody EGFR inhibitors and the compound ointment of the present application, as well as the corresponding experiment results (wherein, the value in the control rate column=the number of rats whose rash is milder in the administration group than that in the control group/the total number of rats in the administration group×100%).

Data set [4] relates to skin contact delayed-type hypersensitivity. As to the kind of experiment: Skin contact delayed-type hypersensitivity (DNFB) response test, ear swelling, topical ointment. The data set is classed as in vivo. The following applies: topical to ears, DNFB DTH, Balb/c mice, compared to blank ointment. From the text:
Therapeutic Effect of Topical Administration of Compounds of the Present Application in Skin Contact Delayed-Type Hypersensitivity Response Test in Mice Delayed-type hypersensitivity (DTH) response in mouse skin is considered to be an effective model for clinical contact dermatitis and other T cell-mediated cutaneous immune diseases, such as atopic dermatitis and psoriasis. The DTH in mice shares the common features with these cutaneous immune diseases, including immunoinfiltration with an increase of inflammatory cytokines and hyperproliferation of keratinocytes. Balb/c mice were sensitized by topical administration of the antigen 2,4-dinitrofluorobenzene (DNFB) to the shaved back of mice on Days 0 and 1. On Day 5, the thickness of the ears was measured using an engineering micrometer. The measurement result was recorded and used as a baseline. The animals were then challenged with a total of 20 μL of DNFB (10 μL for the internal pinna and 10 μL for the external pinna) topically dosed to both ears at a concentration of 0.2%. The ears were measured again 24-72 hours after challenge. The compound ointment of the present application was applied topically to the ears of the animals throughout the allergic and challenge periods (Days −1˜7) or before or throughout the challenge period (generally Days 4˜7). The therapeutic effect was expressed by a reduction in ear swelling compared to that of the blank ointment. The compound causing a reduction of 20% or more was considered effective. Table 5 lists the skin contact delayed-type hypersensitivity experiment results in mice treated with the compound of the present application.

Data set [5] is described as follows: Plasma stability, human plasma. The data set is classed as in vitro ADME, Humans. The following applies: 37° C. The protocol:
(§1) In addition, the plasma stability of these compounds was determined. Briefly, the determination method comprises the following steps: • 1) Thaw the frozen mixed plasma in a 37° C. water bath before testing, and then centrifuge at 4000 rpm for 5 min to remove blood clots; • 2) Add 98 μL blank plasma into each well of the 96-well reaction plate; • 3) In addition to the blank samples, add 2 μL of 100 μM working solution of test compound into each well; • 3) Incubate the reaction plate at 37° C. and start timing. Incubation times were 0, 10, 30, 60 and 120 minutes, respectively, with two replicate wells at each time point; • 4) Terminate the incubation at the corresponding time point, and add 400 μL of acetonitrile solution containing 200 ng/mL tolbutamide and 200 ng/mL labetalol to precipitate proteins; • 5) Shake each plate for 20 minutes, then centrifuge at 4000 rpm for 20 minutes, transfer 50 μL of supernatant to another 96-well plate, and dilute each sample with 100 μL of pure water; • 6) Analyze the sample by LC-MS/MS.
The experiment results are as follows, and it can be seen from the test results that the selected compounds are easily metabolized to the target compound in human plasma.

In data set [6] the test system is rash caused by small molecule EGFR inhibitors. As to the kind of experiment: Prevention of rash caused by small molecule EGFR inhibitors, topical ointment, rat model. It counts as in vivo, SD rats. An excerpt:
An Experiment to Verify the Prevention of Rash Caused by Small Molecule EGFR Inhibitors with Topical Administration of Compounds of the Present Application on a Rat Animal Model A rat animal model was established. After daily gavage of a small molecule EGFR inhibitor to female SD rats for […], the rats developed extensive rashes on their backs several days later (picture shown in FIG. 1). […] Similar to humans, rats developed skin rashes on their faces and bodies after oral administration of small molecule EGFR inhibitors. Both of them had the same etiology and very similar symptoms. Therefore, rats are a proper animal model for mimicking EGFR inhibitor-induced rash. After the SD rats were fed and adapted for one week (about 200 g), the rats were divided into 10 rats per group. The hair on the back of rats was gently removed with an electric razor one day before the experiment, and then an intragastric administration test was carried out. EGFR inhibitors were dissolved in a sterile aqueous solution, and diluted with PBS buffer; the amount of each gavage was not more than 2 mL, and the dosage was shown in Table 1. The experiment comprised the administration group and the control group. After intragastric administration, apply the ointment (type and concentration are shown in Table 1) of the compound used in the present application to the backs (about 3 cm*3 cm) of rats in the administration group; apply blank matrix ointment (about 0.5 g) to the backs (about 3 cm*3 cm) of rats in the control group; fix the rats with a fixed cylinder for about 4 hours after drug application, release the rats after 4 hours, wipe off the residual drug at the application site with clean water, and put them back into the cage. The frequency of intragastric administration of EGFR inhibitors is shown in Table 1, but the compounds of the present application and blank matrix ointment are applied only once a day. The intragastric administration and application test were repeated daily until an obvious rash appeared in the control group. […] Table 1 lists the animal experiment combination of various small molecule EGFR inhibitors and the compound ointment of the present application, as well as the corresponding experiment results (wherein, the value in the control rate column=the number of rats whose rash is milder in the administration group than that in the control group/the total number of rats in the administration group×100%).

The nature of data set [7]: Plasma stability, mini pig plasma. It counts as in vitro ADME, Mini Pigs. The following applies: 37° C. The procedure:
as §1

[8] abbreviates: aqueous buffer, PBS buffer pH 6.5, about 25° C., read-out: Thermodynamic Solubility pH = 6.5.
Setting [9] is: oil or lipid, isopropyl myristate as vehicle, about 25° C., read-out: Thermodynamic Solubility in Isopropyl Myristate.

A word on the solubility (thermodynamic): it is solubility found after equilibrating the solid with the medium. For the compound `C[C@@H]1CCN(C(=O)CC#N)C[C@@H]1N(C)c1ncnc2c1ccn2C(=O)N(C)CCOC(=O)C1CC(F)(F)C1` [Compound A1], the logD in data set [1] is 1.45. For the same compound, the figures for the thermodynamic solubility at 24 h in data set [2] (setting [8]) and in data set [2] (setting [9]) were 645 µg/mL (≈ 1210 µM) and 878 µg/mL (≈ 1650 µM), respectively.
As for `C[C@@H]1CCN(C(=O)CC#N)C[C@@H]1N(C)c1ncnc2c1ccn2C(=O)N(C)CCOC(=O)C1CCC(F)(F)CC1` [Compound A2], the logD in data set [1] came to 1.86. The thermodynamic solubility at 24 h in data set [2] (setting [8]) worked out at 240 µg/mL (≈ 429 µM); in data set [2] (setting [9]), 1020 µg/mL (≈ 1820 µM).
The matching figures for `C[C@@H]1CCN(C(=O)CC#N)C[C@@H]1N(C)c1ncnc2c1ccn2C(=O)N(C)CCOC(=O)C1(C)CCC1` [Compound A3]: 2.1, 304 µg/mL (≈ 597 µM) and 2340 µg/mL (≈ 4580 µM).
The matching figures for `C[C@@H]1CCN(C(=O)CC#N)C[C@@H]1N(C)c1ncnc2c1ccn2C(=O)N(C)CCOC(=O)C1CCC1` [Compound A4]: 2.35, 486 µg/mL (≈ 981 µM) and 1250 µg/mL (≈ 2520 µM).
The matching figures for `C[C@@H]1CCN(C(=O)CC#N)C[C@@H]1N(C)c1ncnc2c1ccn2C(=O)N(C)CCOC(=O)CC1CCC1` [Compound A5]: 2.05, 147 µg/mL (≈ 289 µM) and 1200 µg/mL (≈ 2350 µM).
`C[C@@H]1CCN(C(=O)CC#N)C[C@@H]1N(C)c1ncnc2c1ccn2C(=O)N(C)CCOC(=O)C1CCCC1` [Compound A6]: the logD in data set [1] is 1.95. Further, the thermodynamic solubility at 24 h in data set [2] (setting [8]) came to 300 µg/mL (≈ 589 µM); in data set [2] (setting [9]) it was 1530 µg/mL (≈ 2990 µM).
Regarding `C[C@@H]1CCN(C(=O)CC#N)C[C@@H]1N(C)c1ncnc2c1ccn2C(=O)N(C)CCOC(=O)C1CCOC1` (some centres unmarked) [Compound A8], in data set [1], the logD amounted to 0.56. In addition, the values for the thermodynamic solubility at 24 h in data set [2] (setting [8]) and in data set [2] (setting [9]) were 2940 µg/mL (≈ 5750 µM) and 208 µg/mL (≈ 407 µM), respectively.
A word on the half-life: it is the time needed for the level to fall by half in the phase considered. Take `C[C@@H]1CCN(C(=O)CC#N)C[C@@H]1N(C)c1ncnc2c1ccn2C(=O)N(C)CCOC(=O)C1CCCCC1` [Compound A16]: the “Control Rate” value in data set [3] (Cetuximab 100 mg/kg twice a week via tail vein, ointment 0.3 wt% once a day, 10 days) worked out at 10%; in data set [3] (Cetuximab 100 mg/kg twice a week via tail vein, ointment 3.0 wt% once a day, 10 days) it was 50%; in data set [3] (Cetuximab 100 mg/kg twice a week via tail vein, ointment 10.0 wt% once a day, 10 days), 70%; in data set [3] (Panitumumab 10 mg/kg twice a week via tail vein, ointment 1.0 wt% once a day, 14 days), 50%; in data set [3] (Panitumumab 10 mg/kg twice a week via tail vein, ointment 5.0 wt% once a day, 14 days), 80%; in data set [3] (Panitumumab 10 mg/kg twice a week via tail vein, ointment 10.0 wt% once a day, 14 days) it was 60%. The “Control Rate” value is 60% in data set [6] (Afatinib 40 mg/kg once a day, ointment 1.0 wt% once a day, 14 days); 80% in data set [6] (Afatinib 40 mg/kg once a day, ointment 5.0 wt% once a day, 14 days); 100% in data set [6] (Afatinib 40 mg/kg once a day, ointment 10.0 wt% once a day, 14 days); 50% in data set [6] (BPI-7711 60 mg/kg once a day, ointment 1.0 wt% once a day, 12 days); 30% in data set [6] (Erlotinib 70 mg/kg once a day, ointment 0.3 wt% once a day, 14 days); 50% in data set [6] (Erlotinib 70 mg/kg once a day, ointment 3.0 wt% once a day, 14 days). The “Control Rate” value in data set [6] (Zorifertinib 60 mg/kg once a day, ointment 1.0 wt% once a day, 14 days) was found to be 30%. For the same compound, the “Reduction Rate of Ear Swelling” value in data set [4] (ointment 0.1 wt%) was found to be 25%; in data set [4] (ointment 1.0 wt%) it was 35%; in data set [4] (ointment 5.0 wt%) it was 39%; in data set [4] (ointment 10.0 wt%), 42%. Also, the half-life at 2 µM in data set [5] was determined as 2.2 min; in data set [7], 2.8 min. The “% Retained” value in data set [5] (0 min) came out at 100.0%; in data set [5] (10 min) it was 4.5%; in data set [5] (30 min), 0.0%; in data set [5] (60 min), 0.0%; in data set [5] (120 min), 0.0%; in data set [7] (0 min), 100.0%. Also, the “% Retained” value in data set [7] (10 min) is 8.3%; in data set [7] (30 min), 0.1%; in data set [7] (60 min) it was 0.0%; in data set [7] (120 min) it was 0.0%.
